In patent US11440940B2, “Polymyxin B component or salt thereof, and preparation and application thereof” (SPH NO.1 BIOCHEMICAL & PHARMACEUTICAL CO.,LTD., priority 2020, dated 2022):
In brackets after ≈: the same amount, converted by molar mass. Where two headings read alike, the source gives them in different places. Where a SMILES comes first, the peptide text is derived from it. Bridges are numbered along the chain shown (N, C = ends). [ ]: non-standard residue; d: D form. The star is where a group is joined. aThr = C[C@H](O)[C@H](N)C(=O)O; X2 = CC[C@@H](C)CC/C=C/C(=O)*; X1 = CC[C@@H](C)CCCCC(=O)*; Dab = NCC[C@H](N)C(=O)O

Columns and labels:
[1] = tested on: Acinetobacter baumannii ATCC19606; assay type: cell-based
Description: Minimal inhibitory concentrations (MIC) of the polymyxin B1 (PMB1) and the 2′,3′-dehydropolymyxin B1 against Acinetobacter baumannii were determined using a microdilution broth method as instructed by Clinical & Laboratory Standards Institute (CLSI). Specifically, Acinetobacter baumannii ATCC19606 (standard strain) was inoculated into a 96-well plate at a density of […], to which a PMB1 solution (as control) or a 2′,3′-dehydropolymyxin B1 solution was added to a series of final concentrations of 0.125, 0.25, 0.5, 1, 2, 4 and 8 mg/L. The 96-well plate was incubated at 35±2° C. for 18-24 h, and then observed for the turbidity in each test well, where the lowest concentration of PMB1 or 2′,3′-dehydropolymyxin B1 under which the system in the test well became clear was considered as the corresponding MIC.

[2] = tested on: Pseudomona aeruginosa ATCC27853; assay type: cell-based
Description: Furthermore, the polymyxin B1 (PMB1) and the 2′,3′-dehydropolymyxin B1 were also determined for MIC against Pseudomona aeruginosa using the microdilution broth method as instructed by CLSI. Similarly, the Pseudomona aeruginosa ATCC27853 (standard strain) was inoculated into a 96-well plate at a density of 10^6 CFU/mL, to which a PMB1 solution (as control) or a 2′,3′-dehydropolymyxin B1 solution was added to a series of final concentrations of 0.125, 0.25, 0.5, 1, 2, 4 and 8 mg/L. The 96-well plate was incubated at […] for 18-24 h, and then observed for the turbidity in each test well, where the lowest concentration of PMB1 or 2′,3′-dehydropolymyxin B1 under which the system in the test well became clear was considered as the corresponding MIC.

MIC ([1]; ATCC19606) [µg/mL] | MIC ([2]; ATCC27853) [µg/mL] | SMILES | MIC ([1]; Acinetobacter baumannii ATCC19606 (standard strain), 96-well plate, 35±2° C., 18-24 h, turbidity) [µg/mL] | MIC ([2]; Pseudomona aeruginosa ATCC27853 (standard strain), 96-well plate, 18-24 h, turbidity) [µg/mL]
0.5 (≈ 0.416 µM) | 1 (≈ 0.832 µM) | CC[C@@H](C)CC/C=C/C(=O)N[C@@H](CCN)C(=O)N[C@H](C(=O)N[C@@H](CCN)C(=O)N[C@H]1CCNC(=O)[C@H]([C@H](C)O)NC(=O)[C@H](CCN)NC(=O)[C@H](CCN)NC(=O)[C@H](CC(C)C)NC(=O)[C@@H](Cc2ccccc2)NC(=O)[C@H](CCN)NC1=O)[C@H](C)O [2′,3′-dehydropolymyxin B1] (X2-[Dab][aThr][Dab][Dab][Dab][dF]L[Dab][Dab][aThr]; lactam 4-C) | – | –
– | – | CC[C@@H](C)CCCCC(=O)N[C@@H](CCN)C(=O)N[C@H](C(=O)N[C@@H](CCN)C(=O)N[C@H]1CCNC(=O)[C@H]([C@H](C)O)NC(=O)[C@H](CCN)NC(=O)[C@H](CCN)NC(=O)[C@H](CC(C)C)NC(=O)[C@@H](Cc2ccccc2)NC(=O)[C@H](CCN)NC1=O)[C@H](C)O [Polymyxin B1, polymyxin B1] (X1-[Dab][aThr][Dab][Dab][Dab][dF]L[Dab][Dab][aThr]; lactam 4-C) | 1 (≈ 0.831 µM) | 1 (≈ 0.831 µM)
